Experimental data as given in patent publication US4929445A, “Method for inhibiting Listeria monocytogenes using a bacteriocin” (Microlife Technics, Inc., priority 1988, dated 1990).

Legend:
Listeria monocytogenes [1] = assay: Activity of PA-1 against Listeria monocytogenes in dressed Cottage cheese; assay type: cell-based
Experimental: Listeria monocytogenes was added to dressed Cottage cheese (pH 5.1) at a rate of 6.5×10^3 cfu/gram of dressed Cottage cheese. The bacteriocin powder to Example 1 (PA-1) was added to the Cottage cheese at a rate of 10 or 50 U (units)/g dressed Cottage cheese. The samples were mixed and incubated at 4° C. and aliquots were removed and plated onto McBride's Agar (Difco, Detroit, Mich.) and incubated at 32° C. and examined for growth of Listeria monocytogenes.

[2] = tested on: Pediococcus pentosaceus FBB63C; assay: MIC and MBC by two-fold broth dilution; assay type: cell-based; details: APT broth, 24 hours at 32° C.
Listeria monocytogenes [3] = assay: Activity of PA-1 against Listeria monocytogenes in cheese sauce; assay type: cell-based; details: cheese sauce pH 5.25, 4° C., LM 5.3 × 10^3 cells per gram
Experimental: Listeria monocytogenes was added to the cheese sauce (pH 5.25) at a rate of 5.3×10^3 cfu/g of cheese sauce. The bacteriocin powder PA-1 was added to the cheese sauce at a rate of 10 or 50 U/g of sauce. The samples were mixed and incubated at 4° C. and aliquots were removed and examined for growth of Listeria monocytogenes.

Listeria monocytogenes [4] = assay: Effect of PA-1 powder on an exponential culture (turbidity at 660 nm); assay type: cell-based; details: 200 U/ml and 500 U/ml added after 3.75 hours, APT broth, 32° C.
Experimental: The PA-1 powder was added to a L. monocytogenes culture at 200 U(units)/ml or 500 U/ml and turbidity (which is an indicator of the number of cells) was monitored over time at 660 nanometers. The symbols used are , control (no PA-1 added); .circle., 200 U/ml PA-1; .quadrature., 500 U/ml PA-1.
Sterile PA-1 bacteriocin powder was added to an exponential culture of Listeria monocytogenes at a rate of 200 U/ml of broth and 500 U/ml of broth. Listeria monocytogenes was grown in APT broth at 32° C. Absorbance was followed over time at 660 nm.

[5] = tested on: Listeria monocytogenes LM01; assay: MIC and MBC by two-fold broth dilution; assay type: cell-based; details: APT broth, 24 hours at 32° C.
Experimental: Bacteriocin PA-1 powder was dissolved in APT broth and two-fold serially diluted to concentrations ranging from 1000 U/ml to 2.0 U/ml. Approximately 1×10^3 Listeria monocytogenes/ml were added to each of the tubes which then were incubated for 24 hours at 32° C. The MIC value was the lowest concentration tube displaying no visible turbidity.

Listeria monocytogenes [6] = assay: Activity of PA-1 against Listeria monocytogenes in half and half cream; assay type: cell-based; details: half and half cream pH 6.7, 4° C., LM 4.3 × 10^3 cells per ml, PA-1 50 U/ml
Experimental: Listeria monocytogenes was added to the cream (pH 6.7) at a rate of 4.3×10^3 cfu/ml of cream. The bacteriocin powder PA-1 was added to the cream at a rate of 10 or 50 U/ml cream. The samples were mixed and incubated at 4° C. and aliquots were removed and examined for growth of Listeria monocytogenes .

[7] = tested on: Lactococcus, Streptococcus, Staphylococcus, Micrococcus and Lactobacillus strains; details: Lactococcus lactis, L. lactis subsp. diacetylactis, L. cremoris, Streptococcus thermophilus, Staphylococcus aureus, xylosus, epidermidis, carnosus, Micrococcus varians, sodonensis, Lactobacillus acidophilus, bulgaricus; cited from earlier work
[8] = cited from earlier work

With “PA-1: bacteriocin of about 16,500 daltons produced by Pediococcus acidilactici NRRL-B-18050 (PAC 1.0); tested as lyophilized culture supernatant powder with nonfat dry milk” the “Growth of Listeria at 24 h” value (Listeria monocytogenes [1]; dressed Cottage cheese pH 5.1, 4° C., LM 6.5 × 10^3 cells per gram, PA-1 10 U/g) was 0 cfu/g, the “Growth of Listeria at 24 h” value (Listeria monocytogenes [1]; dressed Cottage cheese pH 5.1, 4° C., LM 6.5 × 10^3 cells per gram, PA-1 50 U/g) was 0 cfu/g and the “Growth of Listeria at 24 h” value (Listeria monocytogenes [1]; dressed Cottage cheese, 4° C., no LM added, PA-1 50 U/g) was 0 cfu/g. The MBC ([2]; no CFU on APT agar) was 31.3 U/ml, the MIC ([2]; no visible turbidity) was 7.8 U/ml and the “Growth of Listeria at 24 h” value (Listeria monocytogenes [3]; PA-1 10 U/g) was 4.0 × 10^2 cfu/g. The “Growth of Listeria at 24 h” value (Listeria monocytogenes [3]; PA-1 50 U/g) was 0 cfu/g, the “Effect on exponential culture, absorbance at 660 nm” value (Listeria monocytogenes [4]) was “not only inhibitory but also bacteriocidal” and the MBC ([5]; no CFU on APT agar) was 7.8 U/ml. For the same substance, the MIC ([5]; about 1×10^3 cells/ml, no visible turbidity) was under 2.0 U/ml, the “Growth of Listeria at 24 h” value (Listeria monocytogenes [6]) was 0 cfu/g and the “Inhibitory activity against other gram positive bacteria” value [7] was “No activity was found”. The “Effect of heating on the bacteriocin” value ([8]; heating to 100° C. in water) was “unaffected”, the “Effect of proteolytic enzymes on the bacteriocin” value ([8]; in vitro mixing with protease, papain or alpha-chymotrypsin) was “inactivated” and the “Effect of other enzymes on the bacteriocin” value ([8]; phospholipase C, lysozyme, Dnase and RNase) was “unaffected”.
